The values below come from PMC3257585 (Journal of Medicinal Chemistry, 2011).

One assay addresses HER4 (Homo sapiens, UniProt Q15303). Kind of assay: In vitro kinase selectivity panel. The assay is classed as biochemical.
Another assay has as its target PKA (Homo sapiens, UniProt P17612). The assay is described as follows: In vitro kinase selectivity panel. The assay is classed as biochemical.
In assay [1] the test system is phosphorylation of 4E-BP1. The assay is described as follows: Western blot of 4E-BP1 phosphorylation in MV4. The assay is classed as cell-based, human. The conditions noted are these: MV4;11 cells, 0–10 μM. Background: A western blot detects proteins with antibodies after separation by electrophoresis.
Another assay deals with PIM1 (Homo sapiens, UniProt P11309). Kind of assay: Thermal stability shift assay. The conditions noted are these: Tm shift assay. The assay is classed as binding.
For the next assay, the target named is T1, PDK1v2 (Homo sapiens, UniProt O15530).
T1 sequence (O15530 1-556): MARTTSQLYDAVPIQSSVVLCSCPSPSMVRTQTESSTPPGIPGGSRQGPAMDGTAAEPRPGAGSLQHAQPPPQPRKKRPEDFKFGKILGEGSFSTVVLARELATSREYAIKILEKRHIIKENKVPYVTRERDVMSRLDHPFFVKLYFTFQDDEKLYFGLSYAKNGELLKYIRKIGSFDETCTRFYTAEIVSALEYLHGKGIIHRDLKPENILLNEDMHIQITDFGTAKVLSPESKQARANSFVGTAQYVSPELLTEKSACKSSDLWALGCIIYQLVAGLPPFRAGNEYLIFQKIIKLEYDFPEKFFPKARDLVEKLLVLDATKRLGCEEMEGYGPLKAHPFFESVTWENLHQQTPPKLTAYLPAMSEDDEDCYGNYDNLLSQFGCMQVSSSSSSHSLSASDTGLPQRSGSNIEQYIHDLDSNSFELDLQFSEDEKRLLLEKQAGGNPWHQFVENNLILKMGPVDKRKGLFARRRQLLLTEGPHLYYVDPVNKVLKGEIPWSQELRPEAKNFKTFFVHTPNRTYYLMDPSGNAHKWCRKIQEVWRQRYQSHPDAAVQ
The assay is described as follows: In vitro kinase selectivity panel. The assay is classed as biochemical.

The target in the next assay is BTKv2 (Homo sapiens, UniProt Q06187). Kind of assay: In vitro kinase selectivity panel. The assay is classed as biochemical.
The next assay has as its target T2, FLT3 (Homo sapiens, UniProt P36888).
T2 sequence (P36888 27-993): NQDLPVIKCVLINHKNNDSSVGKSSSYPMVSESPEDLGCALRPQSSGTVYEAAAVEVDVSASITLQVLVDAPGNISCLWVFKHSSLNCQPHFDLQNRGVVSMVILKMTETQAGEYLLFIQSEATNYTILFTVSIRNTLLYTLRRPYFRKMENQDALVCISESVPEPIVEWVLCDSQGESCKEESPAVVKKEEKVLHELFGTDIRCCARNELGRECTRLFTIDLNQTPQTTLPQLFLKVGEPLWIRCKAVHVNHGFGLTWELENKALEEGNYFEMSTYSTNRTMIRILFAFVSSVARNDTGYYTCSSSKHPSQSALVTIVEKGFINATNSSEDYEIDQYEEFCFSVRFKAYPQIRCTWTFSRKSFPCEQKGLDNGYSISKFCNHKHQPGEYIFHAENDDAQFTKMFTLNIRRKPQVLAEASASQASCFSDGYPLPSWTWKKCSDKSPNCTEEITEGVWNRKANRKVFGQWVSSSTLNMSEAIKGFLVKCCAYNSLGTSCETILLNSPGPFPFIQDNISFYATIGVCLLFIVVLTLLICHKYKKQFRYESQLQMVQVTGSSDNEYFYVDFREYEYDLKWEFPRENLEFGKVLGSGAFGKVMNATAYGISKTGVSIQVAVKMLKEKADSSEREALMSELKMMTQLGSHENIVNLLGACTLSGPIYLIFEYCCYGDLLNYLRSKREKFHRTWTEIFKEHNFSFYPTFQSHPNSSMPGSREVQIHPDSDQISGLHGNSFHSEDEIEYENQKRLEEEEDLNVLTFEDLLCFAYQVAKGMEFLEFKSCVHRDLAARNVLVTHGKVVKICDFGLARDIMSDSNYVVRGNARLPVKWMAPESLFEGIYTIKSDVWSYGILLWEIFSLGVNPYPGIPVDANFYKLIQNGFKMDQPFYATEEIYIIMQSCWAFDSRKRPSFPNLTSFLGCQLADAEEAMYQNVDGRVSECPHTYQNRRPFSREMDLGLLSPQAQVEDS
Kind of assay: In vitro kinase selectivity panel. The assay is classed as biochemical.

A further assay has as its target PDGFRa (Homo sapiens, UniProt P16234). The assay is described as follows: In vitro kinase selectivity panel. The assay is classed as biochemical.
Another assay addresses CaMK2 (Homo sapiens, UniProt Q13555). Kind of assay: In vitro kinase selectivity panel. The assay is classed as biochemical.
A further assay concerns the target cKIT (Homo sapiens, UniProt P10721). The assay is described as follows: In vitro kinase selectivity panel. The assay is classed as biochemical.

PIM1, sequence (P11309 whole entry): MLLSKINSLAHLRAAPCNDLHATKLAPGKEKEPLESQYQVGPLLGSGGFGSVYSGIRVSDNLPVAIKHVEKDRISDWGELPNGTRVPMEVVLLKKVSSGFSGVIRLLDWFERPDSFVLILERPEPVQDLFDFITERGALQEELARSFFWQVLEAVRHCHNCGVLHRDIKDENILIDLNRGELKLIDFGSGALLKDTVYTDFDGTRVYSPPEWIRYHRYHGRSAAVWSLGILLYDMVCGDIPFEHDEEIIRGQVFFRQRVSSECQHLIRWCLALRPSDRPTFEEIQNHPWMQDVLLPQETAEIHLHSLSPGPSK
cKIT, sequence (P10721 26-976): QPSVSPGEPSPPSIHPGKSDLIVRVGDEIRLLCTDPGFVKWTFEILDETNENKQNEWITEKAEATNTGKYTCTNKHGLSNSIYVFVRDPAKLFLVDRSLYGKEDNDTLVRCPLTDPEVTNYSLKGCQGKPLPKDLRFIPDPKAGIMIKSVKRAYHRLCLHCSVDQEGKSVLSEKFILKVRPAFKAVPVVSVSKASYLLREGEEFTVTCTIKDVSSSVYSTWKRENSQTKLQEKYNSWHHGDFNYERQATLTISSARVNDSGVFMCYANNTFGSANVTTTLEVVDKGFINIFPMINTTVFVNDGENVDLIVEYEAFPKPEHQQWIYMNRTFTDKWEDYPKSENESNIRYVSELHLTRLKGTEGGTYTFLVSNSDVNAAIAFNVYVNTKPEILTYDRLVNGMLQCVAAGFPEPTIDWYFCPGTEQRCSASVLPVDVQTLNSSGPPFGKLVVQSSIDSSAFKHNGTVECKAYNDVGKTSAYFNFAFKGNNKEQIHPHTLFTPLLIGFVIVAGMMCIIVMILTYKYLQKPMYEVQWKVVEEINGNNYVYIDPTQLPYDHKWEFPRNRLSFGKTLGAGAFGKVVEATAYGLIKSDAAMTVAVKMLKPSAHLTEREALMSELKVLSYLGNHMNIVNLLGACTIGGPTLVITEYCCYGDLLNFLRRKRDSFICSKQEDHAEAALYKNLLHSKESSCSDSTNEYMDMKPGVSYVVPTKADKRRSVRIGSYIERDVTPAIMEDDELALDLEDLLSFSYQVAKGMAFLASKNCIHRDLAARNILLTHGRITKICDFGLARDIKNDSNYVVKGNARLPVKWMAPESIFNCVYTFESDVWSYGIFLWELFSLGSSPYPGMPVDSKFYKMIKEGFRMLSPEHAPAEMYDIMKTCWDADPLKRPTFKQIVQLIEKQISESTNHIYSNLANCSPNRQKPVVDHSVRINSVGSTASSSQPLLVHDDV
PDGFRa, sequence (P16234 24-1089): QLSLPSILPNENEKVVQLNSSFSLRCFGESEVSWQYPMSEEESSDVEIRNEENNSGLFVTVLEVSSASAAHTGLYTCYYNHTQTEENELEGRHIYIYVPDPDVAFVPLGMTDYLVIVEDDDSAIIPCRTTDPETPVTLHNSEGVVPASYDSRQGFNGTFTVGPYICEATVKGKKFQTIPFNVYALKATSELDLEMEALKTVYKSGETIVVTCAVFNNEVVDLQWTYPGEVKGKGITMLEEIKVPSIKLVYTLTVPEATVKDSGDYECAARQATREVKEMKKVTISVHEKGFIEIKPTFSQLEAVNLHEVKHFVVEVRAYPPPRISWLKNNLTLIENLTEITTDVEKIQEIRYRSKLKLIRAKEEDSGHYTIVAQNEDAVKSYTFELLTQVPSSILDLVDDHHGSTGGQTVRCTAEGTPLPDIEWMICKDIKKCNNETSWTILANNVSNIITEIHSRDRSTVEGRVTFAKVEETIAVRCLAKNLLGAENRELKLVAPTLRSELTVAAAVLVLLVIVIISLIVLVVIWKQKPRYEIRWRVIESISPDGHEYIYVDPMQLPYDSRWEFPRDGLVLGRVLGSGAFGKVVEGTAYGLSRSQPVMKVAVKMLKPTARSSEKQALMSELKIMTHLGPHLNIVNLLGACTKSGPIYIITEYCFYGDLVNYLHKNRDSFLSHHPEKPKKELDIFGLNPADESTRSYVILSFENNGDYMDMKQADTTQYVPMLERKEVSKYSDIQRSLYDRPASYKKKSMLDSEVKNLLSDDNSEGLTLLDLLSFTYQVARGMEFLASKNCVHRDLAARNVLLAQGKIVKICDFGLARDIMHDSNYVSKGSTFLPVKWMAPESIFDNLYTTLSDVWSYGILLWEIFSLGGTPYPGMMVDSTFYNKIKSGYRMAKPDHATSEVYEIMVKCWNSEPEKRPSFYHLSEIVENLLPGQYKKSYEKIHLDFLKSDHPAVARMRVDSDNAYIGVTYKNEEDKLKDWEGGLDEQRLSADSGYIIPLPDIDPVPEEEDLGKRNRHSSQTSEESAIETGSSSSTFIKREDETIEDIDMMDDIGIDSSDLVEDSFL
HER4, sequence (Q15303 26-1308): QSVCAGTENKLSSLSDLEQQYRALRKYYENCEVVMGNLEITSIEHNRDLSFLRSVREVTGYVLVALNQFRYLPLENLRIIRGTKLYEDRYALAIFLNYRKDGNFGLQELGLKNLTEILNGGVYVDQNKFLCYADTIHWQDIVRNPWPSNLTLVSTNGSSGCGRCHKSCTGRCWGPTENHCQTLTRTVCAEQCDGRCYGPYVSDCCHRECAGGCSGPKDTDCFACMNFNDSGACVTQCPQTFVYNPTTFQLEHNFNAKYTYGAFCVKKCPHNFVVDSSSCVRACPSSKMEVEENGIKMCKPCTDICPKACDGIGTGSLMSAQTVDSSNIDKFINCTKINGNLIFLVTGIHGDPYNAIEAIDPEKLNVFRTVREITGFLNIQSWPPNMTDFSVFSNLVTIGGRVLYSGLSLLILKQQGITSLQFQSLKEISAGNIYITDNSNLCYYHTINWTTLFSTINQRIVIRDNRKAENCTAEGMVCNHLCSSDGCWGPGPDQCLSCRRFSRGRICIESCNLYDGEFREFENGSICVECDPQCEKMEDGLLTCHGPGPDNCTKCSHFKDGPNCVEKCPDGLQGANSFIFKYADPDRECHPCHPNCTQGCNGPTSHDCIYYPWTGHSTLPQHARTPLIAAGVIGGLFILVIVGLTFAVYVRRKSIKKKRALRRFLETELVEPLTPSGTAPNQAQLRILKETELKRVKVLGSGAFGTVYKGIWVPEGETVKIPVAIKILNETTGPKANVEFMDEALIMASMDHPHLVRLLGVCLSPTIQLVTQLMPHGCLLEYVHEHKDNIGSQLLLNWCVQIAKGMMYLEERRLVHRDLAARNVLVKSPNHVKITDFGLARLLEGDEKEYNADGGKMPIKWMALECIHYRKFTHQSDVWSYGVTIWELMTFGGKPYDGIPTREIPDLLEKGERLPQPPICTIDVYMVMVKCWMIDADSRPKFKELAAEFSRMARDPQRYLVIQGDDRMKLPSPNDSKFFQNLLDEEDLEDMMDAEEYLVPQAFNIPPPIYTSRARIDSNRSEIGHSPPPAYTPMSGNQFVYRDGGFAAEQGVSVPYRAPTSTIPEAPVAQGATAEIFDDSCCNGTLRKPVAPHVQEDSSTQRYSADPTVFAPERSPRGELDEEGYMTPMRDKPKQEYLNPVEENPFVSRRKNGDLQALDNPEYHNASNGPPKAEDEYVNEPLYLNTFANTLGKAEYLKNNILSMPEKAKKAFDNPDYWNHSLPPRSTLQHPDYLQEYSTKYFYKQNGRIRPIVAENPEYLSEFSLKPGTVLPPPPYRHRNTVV
CaMK2, sequence (Q13555 whole entry): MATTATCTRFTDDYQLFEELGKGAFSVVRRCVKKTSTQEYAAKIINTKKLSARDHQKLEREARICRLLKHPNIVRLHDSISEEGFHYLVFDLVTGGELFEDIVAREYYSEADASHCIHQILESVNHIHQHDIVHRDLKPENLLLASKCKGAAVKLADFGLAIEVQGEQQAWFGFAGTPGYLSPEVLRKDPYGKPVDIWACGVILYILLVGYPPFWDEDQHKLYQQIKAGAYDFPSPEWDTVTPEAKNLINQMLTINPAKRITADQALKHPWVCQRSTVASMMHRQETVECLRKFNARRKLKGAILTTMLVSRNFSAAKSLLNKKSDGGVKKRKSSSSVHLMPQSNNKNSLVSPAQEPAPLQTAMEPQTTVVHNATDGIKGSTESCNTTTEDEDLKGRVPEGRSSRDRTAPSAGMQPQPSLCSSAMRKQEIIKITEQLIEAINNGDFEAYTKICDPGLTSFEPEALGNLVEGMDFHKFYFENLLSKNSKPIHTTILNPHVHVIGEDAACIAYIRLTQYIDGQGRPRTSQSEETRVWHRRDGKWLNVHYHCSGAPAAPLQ
BTKv2, sequence (Q06187 whole entry): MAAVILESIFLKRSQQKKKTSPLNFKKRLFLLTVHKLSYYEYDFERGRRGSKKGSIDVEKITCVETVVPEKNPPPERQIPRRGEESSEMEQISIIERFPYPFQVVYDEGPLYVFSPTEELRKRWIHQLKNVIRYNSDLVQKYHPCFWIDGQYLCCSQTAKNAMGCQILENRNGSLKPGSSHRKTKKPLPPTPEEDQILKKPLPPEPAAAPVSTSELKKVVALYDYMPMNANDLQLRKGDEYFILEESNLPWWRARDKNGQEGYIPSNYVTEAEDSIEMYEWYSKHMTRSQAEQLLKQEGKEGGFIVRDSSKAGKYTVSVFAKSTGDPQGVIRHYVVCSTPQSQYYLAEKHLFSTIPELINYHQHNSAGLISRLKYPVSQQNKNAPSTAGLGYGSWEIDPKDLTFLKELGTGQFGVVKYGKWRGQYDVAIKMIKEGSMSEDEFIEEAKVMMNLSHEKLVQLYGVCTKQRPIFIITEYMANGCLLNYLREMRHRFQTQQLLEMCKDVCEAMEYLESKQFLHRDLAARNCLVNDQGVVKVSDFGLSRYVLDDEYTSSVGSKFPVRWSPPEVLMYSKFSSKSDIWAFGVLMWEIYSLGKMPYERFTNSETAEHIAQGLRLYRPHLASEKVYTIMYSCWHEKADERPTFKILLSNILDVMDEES

One may read the IC50 as the midpoint of a concentration-inhibition curve. A lower IC50 goes with inhibition by little substance. `Cn1c2c(c3ccc(Cl)c(Cl)c31)C(C#N)C1(CCNCC1)NC2=O` (racemic) [Compound 20, (4′RS)-7′,8′-Dichloro-9′-methyl-1′-oxo-1′,2′,4′,9′-tetrahydrospiro[piperidine-4,3′-pyrido[3,4-b]indole]-4′-carbonitrile]: the 50% inhibitory concentration (IC50) was above 10 µM at HER4; below 0.1 µM on PKA; above 10 µM on PDK1v2; above 10 µM against BTKv2; below 0.1 µM at CaMK2. Also, the “phosphorylation of 4E-BP1” value in assay [1] was “dose-dependent decrease”. The “activity against PIM1 (in words)” value at PIM1 was “highly potent inhibitors”. For the same compound, the “activity against FLT3 (in words)” value at FLT3 is recorded as “did not exhibit any significant activity”. The “activity against PDGFRα (in words)” value at PDGFRa is given as “did not exhibit any significant activity”. The “activity against KIT (in words)” value on cKIT is given as “did not exhibit any significant activity”.

Regarding `CCN1CCC2(CC1)NC(=O)c1c(c3ccc(Cl)c(Cl)c3n1C)C2C#N` (racemic) [Compound 18, (4′RS)-7′,8′-Dichloro-1-ethyl-9′-methyl-1′-oxo-1′,2′,4′,9′-tetrahydrospiro[piperidine-4,3′-pyrido[3,4-b]indole]-4′-carbonitrile], at PIM1, the “activity against PIM1 (in words)” value is recorded as “highly potent inhibitors”.

For `Cn1c2c(c3ccc(Cl)c(Cl)c31)C(C#N)C1(CCN(C(=O)OC(C)(C)C)CC1)NC2=O` (racemic) [Compound 19, (4′RS)-tert-Butyl 7′,8′-Dichloro-4′-cyano-9′-methyl-1′-oxo-1′,2′,4′,9′-tetrahydrospiro[piperidine-4,3′-pyrido[3,4-b]indole]-1-carboxylate], the “activity against PIM1 (in words)” value on PIM1 is listed as “did not exhibit any inhibitory potency”.

As to “(4RS)-N-[(7,8-Dichloro-3,3-dimethyl-1-oxo-2,3,4,9-tetrahydro-1H-pyrido[3,4-b]indol-4-yl)methyl]acetamide [Compound 24]”, the “activity against PIM1 (in words)” value at PIM1 is “complete loss of activity”.

With `CN1CCC2(CC1)NC(=O)c1c(c3ccc(Cl)c(Cl)c3n1C)C2C#N` (racemic) [Compound 17, (4′RS)-7′,8′-Dichloro-1,9′-dimethyl-1′-oxo-1′,2′,4′,9′-tetrahydrospiro[piperidine-4,3′-pyrido[3,4-b]indole]-4′-carbonitrile], the “activity against PIM1 (in words)” value on PIM1 was “highly potent inhibitors”. For the same compound, the “activity against FLT3 (in words)” value at FLT3 is given as “did not exhibit any significant activity”. For the same compound, the “activity against PDGFRα (in words)” value at PDGFRa was “did not exhibit any significant activity”. In addition, the “activity against KIT (in words)” value on cKIT is given as “did not exhibit any significant activity”.
